PMC12511557, “WEE1 inhibitors synergise with mRNA translation defects via activation of the kinase GCN2” (Nature Communications, 2025)

Molecular target: T1, GCN2 (Homo sapiens, UniProt Q9P2K8)
T1 construct: gene EIF2AK4; recombinant human GCN2, N-terminal twin StrepII tag, expressed in Sf9 cells
Experiment: ADP-Glo kinase assay with purified GCN2 (biphasic: activation EC50 […], inhibition IC50 […]); supported by thermal unfolding (-2.[…] °C shift) and in vitro autophosphorylation
Type: biochemical

T1 sequence (Q9P2K8 whole entry): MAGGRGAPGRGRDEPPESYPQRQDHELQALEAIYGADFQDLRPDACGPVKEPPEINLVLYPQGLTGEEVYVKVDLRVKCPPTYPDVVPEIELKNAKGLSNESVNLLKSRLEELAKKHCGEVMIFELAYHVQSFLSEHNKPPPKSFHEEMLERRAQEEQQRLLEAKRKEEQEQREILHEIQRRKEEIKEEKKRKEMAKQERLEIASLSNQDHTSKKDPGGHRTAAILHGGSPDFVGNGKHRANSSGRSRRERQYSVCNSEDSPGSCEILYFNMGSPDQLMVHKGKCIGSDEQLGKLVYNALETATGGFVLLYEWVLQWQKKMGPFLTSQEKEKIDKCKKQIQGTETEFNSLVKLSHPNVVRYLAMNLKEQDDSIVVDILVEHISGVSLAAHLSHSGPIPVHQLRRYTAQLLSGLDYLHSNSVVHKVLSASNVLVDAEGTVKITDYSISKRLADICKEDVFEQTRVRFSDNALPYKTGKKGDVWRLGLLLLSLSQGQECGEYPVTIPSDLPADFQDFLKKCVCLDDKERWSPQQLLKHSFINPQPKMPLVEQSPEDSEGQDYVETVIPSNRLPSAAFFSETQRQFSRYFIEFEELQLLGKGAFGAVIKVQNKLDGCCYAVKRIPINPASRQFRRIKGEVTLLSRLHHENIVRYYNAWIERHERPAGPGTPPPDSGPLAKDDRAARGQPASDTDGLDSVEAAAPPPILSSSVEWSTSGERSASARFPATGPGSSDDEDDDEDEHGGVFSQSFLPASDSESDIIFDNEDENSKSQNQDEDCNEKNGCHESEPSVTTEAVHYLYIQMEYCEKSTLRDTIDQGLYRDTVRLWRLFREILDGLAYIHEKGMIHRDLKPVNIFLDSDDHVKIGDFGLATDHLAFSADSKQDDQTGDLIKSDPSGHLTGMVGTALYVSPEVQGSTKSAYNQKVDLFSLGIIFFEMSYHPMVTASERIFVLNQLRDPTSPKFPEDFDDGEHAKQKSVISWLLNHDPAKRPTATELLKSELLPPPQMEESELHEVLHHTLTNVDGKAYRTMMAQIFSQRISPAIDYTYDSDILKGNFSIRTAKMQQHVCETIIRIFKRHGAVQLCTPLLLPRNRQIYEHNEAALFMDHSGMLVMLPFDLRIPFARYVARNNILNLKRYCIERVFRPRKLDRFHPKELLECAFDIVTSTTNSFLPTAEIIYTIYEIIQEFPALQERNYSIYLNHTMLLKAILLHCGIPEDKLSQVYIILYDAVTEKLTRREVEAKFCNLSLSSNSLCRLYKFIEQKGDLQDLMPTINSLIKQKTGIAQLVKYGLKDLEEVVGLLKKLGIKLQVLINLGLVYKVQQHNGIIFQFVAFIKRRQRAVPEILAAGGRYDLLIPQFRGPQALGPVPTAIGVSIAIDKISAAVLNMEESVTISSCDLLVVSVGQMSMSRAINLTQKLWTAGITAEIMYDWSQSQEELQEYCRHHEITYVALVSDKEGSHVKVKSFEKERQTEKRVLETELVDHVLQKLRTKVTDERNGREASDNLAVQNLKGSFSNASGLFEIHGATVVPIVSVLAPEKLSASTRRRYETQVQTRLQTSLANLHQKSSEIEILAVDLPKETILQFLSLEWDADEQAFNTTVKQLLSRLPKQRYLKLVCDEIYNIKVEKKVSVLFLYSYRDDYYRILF

C=CCn1c(=O)c2cnc(Nc3ccc(N4CCN(C)CC4)cc3)nc2n1-c1cccc(C(C)(C)O)n1 [AZD1775]
EC50: 16 nM
